ChEMBL document CHEMBL4312004, “From bench to counter: Discovery and validation of a peony extract as tyrosinase inhibiting cosmeceutical” (Eur J Med Chem, 2019)
Calls of active or inactive are those of the source. No cut-off for these calls is given here.

What was measured:
B16-F10 [1] = assay: Antimelanogenic activity against C57BL/6 mouse B16F10 cells incubated for 10 to 50 uM incubated for 24 hrs; assay type: functional
B16-F10 [2] = assay: Antimelanogenic activity against C57BL/6 mouse B16F10 cells at 10 uM incubated for 72 hrs relative to control; assay type: functional
B16-F10 [3] = assay: Antimelanogenic activity against C57BL/6 mouse B16F10 cells at 50 uM incubated for 72 hrs relative to control; assay type: functional
B16-F10 [4] = assay: Cytotoxicity against C57BL/6 mouse B16F10 cells assessed as reduction in cell viability incubated for 72 hrs by SRB assay relative to control; assay type: cell-based; settings: b16-f10, 72 h
[5] = Drug degradation in IMDM cell medium incubated for 24 hrs by HPLC analysis; assay type: physicochemical; settings: read-out: Drug degradation
[6] = Stability of compound in DMSO at 10 mM incubated for 24 hrs by HPLC analysis; assay type: physicochemical; settings: 10000 µM
[7] = Stability of compound in IMDM cell medium incubated for 24 hrs by HPLC analysis; assay type: physicochemical
B16-F10 [8] = assay: Antimelanogenic activity against C57BL/6 mouse B16F10 cells incubated for 72 hrs; assay type: functional, cell-based
[9] = molecular target: T1, Tyrosinase (Agaricus bisporus) (UniProt O42713); assay: Ratio of IC50 for arbutin to IC50 for test compound for inhibition of mushroom tyrosinase
T1 sequence (whole entry): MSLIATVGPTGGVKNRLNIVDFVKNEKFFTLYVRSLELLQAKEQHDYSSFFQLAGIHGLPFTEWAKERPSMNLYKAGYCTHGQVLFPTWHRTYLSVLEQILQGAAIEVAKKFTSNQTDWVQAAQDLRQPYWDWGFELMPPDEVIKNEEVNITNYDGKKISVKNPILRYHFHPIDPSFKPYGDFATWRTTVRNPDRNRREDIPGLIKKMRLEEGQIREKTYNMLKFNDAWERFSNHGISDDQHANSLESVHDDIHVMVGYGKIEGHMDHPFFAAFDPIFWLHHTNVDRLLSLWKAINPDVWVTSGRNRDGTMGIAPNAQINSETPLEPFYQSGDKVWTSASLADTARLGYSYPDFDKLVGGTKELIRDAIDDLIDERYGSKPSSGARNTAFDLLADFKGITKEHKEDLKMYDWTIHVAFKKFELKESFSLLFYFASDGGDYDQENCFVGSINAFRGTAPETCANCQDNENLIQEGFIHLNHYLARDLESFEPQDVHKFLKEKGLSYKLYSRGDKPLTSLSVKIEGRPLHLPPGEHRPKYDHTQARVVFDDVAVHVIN

Tyrosinase = molecular target: T2, Tyrosinase (Agaricus bisporus, UniProt O42713); assay: Inhibition of mushroom tyrosinase using L-dopa as substrate preincubated for 10 mins followed by substrate addition and measured for 5 mins by photometric analysis
T2 sequence (O42713 whole entry): T1 sequence (whole entry)

B16-F10 [10] = assay: Cytotoxicity against C57BL/6 mouse B16F10 cells assessed as increase in membrane blebbing at 50 uM incubated for 48 hrs by microscopic method; assay type: cell-based; settings: b16-f10, 48 h
B16-F10 [11] = assay: Cytotoxicity against C57BL/6 mouse B16F10 cells assessed as increase in cell shrinking at 50 uM incubated for 48 hrs by microscopic method; assay type: cell-based; settings: b16-f10, 48 h

Row | Compound | Activity (B16-F10 [1]) | Activity (B16-F10 [2]) | Activity (B16-F10 [3]) | Activity (B16-F10 [4]) | degraded at 24 h [5] | Stability [6] | Stability [7] | Activity (B16-F10 [8]) | Ratio IC50 [9] | IC50 (Tyrosinase) | Activity (B16-F10 [10]) | Activity (B16-F10 [11])
1 | OC[C@H]1O[C@@H](Oc2ccc(O)cc2)[C@H](O)[C@@H](O)[C@@H]1O | inactive | – | – | – | – | – | – | – | – | – | – | –
2 | OC[C@H]1O[C@@H](Oc2ccc(/C=C/c3cc(O)cc(O)c3)cc2)[C@H](O)[C@@H](O)[C@@H]1O [GOB C] | 25% | 50% | 65% | Non-Toxic | 30% | Stable | Unstable | Dose-dependent effect | 73 | 19 µM | – | –
3 | OC[C@H]1O[C@@H](Oc2cc(O)cc(/C=C/c3ccc(O)cc3)c2)[C@H](O)[C@@H](O)[C@@H]1O [PICEID] | inactive | – | – | – | – | Stable | Stable | – | – | – | – | –
4 | Oc1ccc(/C=C/c2cc(O)cc(O)c2)cc1 [RESVERATROL] | 25% | 50% | 65% | 70% | – | Stable | Stable | Dose-dependent effect | – | – | Toxic | Toxic
